In patent US7138361B2, “Herbicidal heterocycles” (E. I. du Pont de Nemours and Company, priority 2000, dated 2006):

Legend:
Type in all cases: in vivo
[1] = system: Surinam grass (Brachiaria decumbens); assay: Test B postemergence
Outline: (§1)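 Preemergence: seeds planted and treated with test chemicals in non-phytotoxic solvent with surfactant; postemergence on plants 2–18 cm (1- to 4-leaf stage). Kept in greenhouse 13–15 days, then visually rated against controls on a 0 (no effect) to 100 (complete control) scale.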

[2] = system: barnyardgrass (Echinochloa crus-galli); assay: Test B postemergence
Outline: as §1

[3] = system: blackgrass (Alopecurus myosuroides); assay: Test B postemergence
Outline: as §1

[4] = system: cocklebur (Xanthium strumarium); assay: Test B postemergence
Outline: as §1

corn (Zea mays) [5] = assay: Test B postemergence
Outline: as §1

[6] = system: crabgrass (Digitaria sanguinalis); assay: Test B postemergence
Outline: as §1

[7] = system: giant foxtail (Setaria faberii); assay: Test B postemergence
Outline: as §1

[8] = system: lambsquarters (Chenopodium album); assay: Test B postemergence
Outline: as §1

[9] = system: morning glory (Ipomoea hederacea); assay: Test B postemergence
Outline: as §1

[10] = system: pigweed (Amaranthus retroflexus); assay: Test B postemergence
Outline: as §1

[11] = system: velvetleaf (Abutilon theophrasti); assay: Test B postemergence
Outline: as §1

[12] = system: wheat (Triticum aestivum); assay: Test B postemergence
Outline: as §1

wild oat (Avena fatua) = assay: Test B postemergence
Outline: as §1

[13] = system: Surinam grass (Brachiaria decumbens); assay: Test B preemergence
Outline: as §1

[14] = system: barnyardgrass (Echinochloa crus-galli); assay: Test B preemergence
Outline: as §1

[15] = system: cocklebur (Xanthium strumarium); assay: Test B preemergence
Outline: as §1

corn (Zea mays) [16] = assay: Test B preemergence
Outline: as §1

[17] = system: crabgrass (Digitaria sanguinalis); assay: Test B preemergence
Outline: as §1

[18] = system: giant foxtail (Setaria faberii); assay: Test B preemergence
Outline: as §1

[19] = system: lambsquarters (Chenopodium album); assay: Test B preemergence
Outline: as §1

[20] = system: morning glory (Ipomoea hederacea); assay: Test B preemergence
Outline: as §1

[21] = system: pigweed (Amaranthus retroflexus); assay: Test B preemergence
Outline: as §1

rice (Oryza saliva) [22] = assay: Test B preemergence
Outline: as §1

[23] = system: velvetleaf (Abutilon theophrasti); assay: Test B preemergence
Outline: as §1

[24] = system: barnyardgrass (Echinochloa crus-galli); assay: Test B flooded paddy test; conditions: Rate 1000 g/ha, scale of 0 to 100 where 0 is no effect and 100 is complete control, visually evaluated after 13 to 15 days
Outline: (§2)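 Rice, smallflower flatsedge, duck salad and barnyardgrass grown to 2-leaf stage in flooded paddy and treated with test chemicals. Plants kept in greenhouse 13 to 15 days, then visually rated against controls. Scale 0 (no effect) to 100 (complete control).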

[25] = system: duck salad (Heteranthera limosa); assay: Test B flooded paddy test; conditions: Rate 1000 g/ha, scale of 0 to 100 where 0 is no effect and 100 is complete control, visually evaluated after 13 to 15 days
Outline: as §2

rice (Oryza saliva) [26] = assay: Test B flooded paddy test; conditions: Rate 1000 g/ha, scale of 0 to 100 where 0 is no effect and 100 is complete control, visually evaluated after 13 to 15 days
Outline: as §2

[27] = system: smallflower flatsedge (Cyperus difformis); assay: Test B flooded paddy test; conditions: Rate 1000 g/ha, scale of 0 to 100 where 0 is no effect and 100 is complete control, visually evaluated after 13 to 15 days
Outline: as §2

[28] = Rate 125 g/ha, scale 0 (no effect) to 100 (complete control), 13 to 15 days
[29] = Rate 500 g/ha, scale 0 to 100, 0 is no effect, 100 is complete control, 13 to 15 days
[30] = Preemergence, Rate 500 g/ha, scale 0 to 100, 0 no effect, 100 complete control
[31] = preemergence, Rate 125 g/ha, scale of 0 to 100 where 0 is no effect and 100 is complete control, 13 to 15 days
[32] = Rate 125 g/ha, scale 0 to 100, 0 no effect, 100 complete control
[33] = Rate 500 g/ha, scale 0 (no effect) to 100 (complete control), 13 to 15 days

COc1ccn(C2CCN(c3cccc(C(F)(F)F)c3)C2=O)n1 (stereo not shown) [Compound 60]
Plant response rating, Surinam grass [1, 28]: 0 | Plant response rating, Surinam grass [1, 29]: 0 | Plant response rating, Barnyardgrass [2, 28]: 0 | Plant response rating, Barnyardgrass [2, 29]: 0 | Plant response rating, Blackgrass [3, 28]: 0 | Plant response rating, Blackgrass [3, 29]: 0 | Plant response rating, Cocklebur [4, 28]: 0 | Plant response rating, Cocklebur [4, 29]: 0 | Plant response rating, Corn (corn (Zea mays) [5]; [28]): 0 | Plant response rating, Corn (corn (Zea mays) [5]; [29]): 0 | Plant response rating, Crabgrass [6, 28]: 0 | Plant response rating, Crabgrass [6, 29]: 0 | Plant response rating, Foxtail, Giant [7, 28]: 0 | Plant response rating, Foxtail, Giant [7, 29]: 0 | Plant response rating, Lambsquarters [8, 28]: 0 | Plant response rating, Lambsquarters [8, 29]: 0 | Plant response rating, Morningglory [9, 28]: 0 | Plant response rating, Morningglory [9, 29]: 0 | Plant response rating, Pigweed [10, 28]: 0 | Plant response rating, Pigweed [10, 29]: 0 | Plant response rating, Velvetleaf [11, 28]: 0 | Plant response rating, Velvetleaf [11, 29]: 0 | Plant response rating, Wheat [12, 28]: 0 | Plant response rating, Wheat [12, 29]: 0 | Plant response rating, Wild Oat (wild oat (Avena fatua); [28]): 0 | Plant response rating, Wild Oat (wild oat (Avena fatua); [29]): 0 | Plant response rating, Surinam grass [13, 30]: 0 | Plant response rating, Surinam grass [13, 31]: 0 | Plant response rating, Barnyardgrass [14, 30]: 0 | Plant response rating, Barnyardgrass [14, 31]: 0 | Plant response rating, Cocklebur [15, 30]: 0 | Plant response rating, Cocklebur [15, 31]: 0 | Plant response rating, Corn (corn (Zea mays) [16]; [30]): 0 | Plant response rating, Corn (corn (Zea mays) [16]; [31]): 0 | Plant response rating, Crabgrass [17, 30]: 0 | Plant response rating, Foxtail, Giant [18, 30]: 0 | Plant response rating, Foxtail, Giant [18, 31]: 0 | Plant response rating, Lambsquarters [19, 30]: 0 | Plant response rating, Lambsquarters [19, 31]: 0 | Plant response rating, Morningglory [20, 30]: 0 | Plant response rating, Morningglory [20, 31]: 0 | Plant response rating, Pigweed [21, 30]: 100 | Plant response rating, Pigweed [21, 31]: 0 | Plant response rating, Rice (rice (Oryza saliva) [22]; [30]): 0 | Plant response rating, Rice (rice (Oryza saliva) [22]; [31]): 0 | Plant response rating, Velvetleaf [23, 30]: 0 | Plant response rating, Velvetleaf [23, 31]: 0 | Plant response rating, Barnyardgrass [24]: 0 | Plant response rating, Ducksalad [25]: 50 | Plant response rating, Rice (rice (Oryza saliva) [26]): 0 | Plant response rating, Flatsedge [27]: 0

CC(C)(C)c1ccn(C2CCN(c3cccc(OC(=O)C(F)(F)F)c3)C2=O)n1 (stereo not shown) [Compound 94]
Plant response rating, Surinam grass [1, 28]: 0 | Plant response rating, Surinam grass [1, 29]: 0 | Plant response rating, Barnyardgrass [2, 28]: 0 | Plant response rating, Barnyardgrass [2, 29]: 0 | Plant response rating, Blackgrass [3, 28]: 0 | Plant response rating, Blackgrass [3, 29]: 0 | Plant response rating, Cocklebur [4, 28]: 0 | Plant response rating, Cocklebur [4, 29]: 0 | Plant response rating, Corn (corn (Zea mays) [5]; [28]): 0 | Plant response rating, Corn (corn (Zea mays) [5]; [29]): 0 | Plant response rating, Crabgrass [6, 28]: 0 | Plant response rating, Crabgrass [6, 29]: 0 | Plant response rating, Foxtail, Giant [7, 28]: 0 | Plant response rating, Foxtail, Giant [7, 29]: 0 | Plant response rating, Lambsquarters [8, 29]: 20 | Plant response rating, Morningglory [9, 29]: 0 | Plant response rating, Pigweed [10, 29]: 10 | Plant response rating, Velvetleaf [11, 29]: 0 | Plant response rating, Wheat [12, 29]: 0 | Plant response rating, Wild Oat (wild oat (Avena fatua); [29]): 0 | Plant response rating, Surinam grass [13, 30]: 0 | Plant response rating, Surinam grass [13, 31]: 0 | Plant response rating, Barnyardgrass [14, 30]: 0 | Plant response rating, Barnyardgrass [14, 31]: 0 | Plant response rating, Cocklebur [15, 30]: 0 | Plant response rating, Cocklebur [15, 31]: 0 | Plant response rating, Corn (corn (Zea mays) [16]; [30]): 0 | Plant response rating, Corn (corn (Zea mays) [16]; [31]): 0 | Plant response rating, Crabgrass [17, 30]: 30 | Plant response rating, Crabgrass [17, 31]: 0 | Plant response rating, Foxtail, Giant [18, 30]: 0 | Plant response rating, Foxtail, Giant [18, 31]: 0 | Plant response rating, Lambsquarters [19, 30]: 100 | Plant response rating, Lambsquarters [19, 31]: 0 | Plant response rating, Morningglory [20, 30]: 0 | Plant response rating, Morningglory [20, 31]: 0 | Plant response rating, Pigweed [21, 30]: 0 | Plant response rating, Pigweed [21, 31]: 0 | Plant response rating, Rice (rice (Oryza saliva) [22]; [30]): 20 | Plant response rating, Rice (rice (Oryza saliva) [22]; [31]): 0 | Plant response rating, Velvetleaf [23, 30]: 70 | Plant response rating, Velvetleaf [23, 31]: 0 | Plant response rating, Barnyardgrass [24]: 0 | Plant response rating, Ducksalad [25]: 0 | Plant response rating, Rice (rice (Oryza saliva) [26]): 0 | Plant response rating, Flatsedge [27]: 0

Cc1ccnc(N2CCC(n3ccc(C(C)(C)C)n3)C2=O)c1 (stereo not shown) [Compound 139]
Plant response rating, Surinam grass [1, 32]: 0 | Plant response rating, Surinam grass [1, 33]: 0 | Plant response rating, Barnyardgrass [2, 32]: 0 | Plant response rating, Barnyardgrass [2, 33]: 0 | Plant response rating, Blackgrass [3, 32]: 0 | Plant response rating, Blackgrass [3, 33]: 0 | Plant response rating, Cocklebur [4, 32]: 0 | Plant response rating, Cocklebur [4, 33]: 0 | Plant response rating, Corn (corn (Zea mays) [5]; [32]): 0 | Plant response rating, Corn (corn (Zea mays) [5]; [33]): 0 | Plant response rating, Crabgrass [6, 32]: 0 | Plant response rating, Crabgrass [6, 33]: 0 | Plant response rating, Foxtail, Giant [7, 32]: 0 | Plant response rating, Foxtail, Giant [7, 33]: 0 | Plant response rating, Lambsquarters [8, 32]: 0 | Plant response rating, Lambsquarters [8, 33]: 0 | Plant response rating, Morningglory [9, 32]: 0 | Plant response rating, Morningglory [9, 33]: 0 | Plant response rating, Pigweed [10, 32]: 0 | Plant response rating, Pigweed [10, 33]: 0 | Plant response rating, Velvetleaf [11, 32]: 0 | Plant response rating, Velvetleaf [11, 33]: 0 | Plant response rating, Wheat [12, 32]: 0 | Plant response rating, Wheat [12, 33]: 0 | Plant response rating, Wild Oat (wild oat (Avena fatua); [32]): 0 | Plant response rating, Wild Oat (wild oat (Avena fatua); [33]): 0 | Plant response rating, Surinam grass [13, 30]: 0 | Plant response rating, Surinam grass [13, 31]: 0 | Plant response rating, Barnyardgrass [14, 30]: 0 | Plant response rating, Barnyardgrass [14, 31]: 0 | Plant response rating, Cocklebur [15, 30]: 0 | Plant response rating, Corn (corn (Zea mays) [16]; [30]): 0 | Plant response rating, Corn (corn (Zea mays) [16]; [31]): 0 | Plant response rating, Crabgrass [17, 30]: 0 | Plant response rating, Crabgrass [17, 31]: 0 | Plant response rating, Foxtail, Giant [18, 30]: 0 | Plant response rating, Foxtail, Giant [18, 31]: 0 | Plant response rating, Lambsquarters [19, 30]: 100 | Plant response rating, Lambsquarters [19, 31]: 100 | Plant response rating, Morningglory [20, 30]: 0 | Plant response rating, Morningglory [20, 31]: 0 | Plant response rating, Pigweed [21, 30]: 100 | Plant response rating, Pigweed [21, 31]: 0 | Plant response rating, Rice (rice (Oryza saliva) [22]; [30]): 0 | Plant response rating, Rice (rice (Oryza saliva) [22]; [31]): 0 | Plant response rating, Velvetleaf [23, 30]: 0 | Plant response rating, Velvetleaf [23, 31]: 0 | Plant response rating, Barnyardgrass [24]: 20 | Plant response rating, Ducksalad [25]: 0 | Plant response rating, Rice (rice (Oryza saliva) [26]): 0 | Plant response rating, Flatsedge [27]: 70
